The record followed here is ChEMBL document CHEMBL5291721, “A preclinical secondary pharmacology resource illuminates target-adverse drug reaction associations of marketed drugs” (Nat Commun, 2023).

Assay [1] addresses T1, Neuropeptide Y receptor type 1 (Homo sapiens, UniProt P25929).
T1 sequence (P25929 whole entry): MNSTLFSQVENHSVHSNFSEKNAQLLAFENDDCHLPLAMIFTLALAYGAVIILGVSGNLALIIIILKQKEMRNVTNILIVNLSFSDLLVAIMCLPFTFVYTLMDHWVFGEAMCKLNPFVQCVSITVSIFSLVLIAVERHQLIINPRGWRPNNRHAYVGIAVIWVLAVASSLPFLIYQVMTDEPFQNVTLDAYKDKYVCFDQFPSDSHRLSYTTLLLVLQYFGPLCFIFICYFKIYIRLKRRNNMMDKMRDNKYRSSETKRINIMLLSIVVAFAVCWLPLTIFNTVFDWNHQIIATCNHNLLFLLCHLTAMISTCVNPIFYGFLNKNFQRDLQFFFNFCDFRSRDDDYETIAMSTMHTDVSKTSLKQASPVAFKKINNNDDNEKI

Assay [2] deals with T2, Gamma-aminobutyric acid receptor subunit alpha-1 (Rattus norvegicus, UniProt P62813). Format: functional.
The target in assay [3] is Histamine H2 receptor (Homo sapiens, UniProt P25021). It is filed as functional, cell-based.
Assay [4] addresses Motilin receptor (Homo sapiens, UniProt O43193).
Assay [5] concerns the target Beta-1 adrenergic receptor (Homo sapiens, UniProt P08588). It is filed as functional.
For assay [6], the target named is Growth hormone secretagogue receptor type 1 (Homo sapiens, UniProt Q92847).
For assay [7], the target named is Sodium-dependent noradrenaline transporter (Homo sapiens, UniProt P23975).
The target in assay [8] is Beta-2 adrenergic receptor (Homo sapiens, UniProt P07550).
Assay [9] addresses Adenosine receptor A2a (Homo sapiens, UniProt P29274).
For assay [10], the target named is cGMP-inhibited 3',5'-cyclic phosphodiesterase 3A (Homo sapiens, UniProt Q14432). It is filed as functional.
Assay [11] has as its target T3, Alpha-2A adrenergic receptor (Homo sapiens, UniProt P08913).
T3 sequence (P08913 whole entry): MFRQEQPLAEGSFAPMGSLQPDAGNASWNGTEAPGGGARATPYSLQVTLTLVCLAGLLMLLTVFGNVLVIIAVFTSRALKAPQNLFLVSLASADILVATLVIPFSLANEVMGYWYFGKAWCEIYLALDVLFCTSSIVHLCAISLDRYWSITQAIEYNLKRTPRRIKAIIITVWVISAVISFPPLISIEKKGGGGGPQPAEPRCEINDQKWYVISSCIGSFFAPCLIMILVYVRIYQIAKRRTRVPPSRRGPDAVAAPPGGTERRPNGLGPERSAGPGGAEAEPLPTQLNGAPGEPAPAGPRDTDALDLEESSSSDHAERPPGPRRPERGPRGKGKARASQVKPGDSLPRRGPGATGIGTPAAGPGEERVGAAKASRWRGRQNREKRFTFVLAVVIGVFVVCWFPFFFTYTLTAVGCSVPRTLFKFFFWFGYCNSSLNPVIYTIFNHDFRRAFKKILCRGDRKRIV
Format: functional, cell-based.

Assay [12] concerns the target 5-hydroxytryptamine receptor 2B (Homo sapiens, UniProt P41595). Format: functional, cell-based.
Assay [13] has as its target T2, Gamma-aminobutyric acid receptor subunit alpha-1.
For assay [14], the target named is T4, 5-hydroxytryptamine receptor 2C (Homo sapiens, UniProt P28335).
T4 sequence (P28335 whole entry): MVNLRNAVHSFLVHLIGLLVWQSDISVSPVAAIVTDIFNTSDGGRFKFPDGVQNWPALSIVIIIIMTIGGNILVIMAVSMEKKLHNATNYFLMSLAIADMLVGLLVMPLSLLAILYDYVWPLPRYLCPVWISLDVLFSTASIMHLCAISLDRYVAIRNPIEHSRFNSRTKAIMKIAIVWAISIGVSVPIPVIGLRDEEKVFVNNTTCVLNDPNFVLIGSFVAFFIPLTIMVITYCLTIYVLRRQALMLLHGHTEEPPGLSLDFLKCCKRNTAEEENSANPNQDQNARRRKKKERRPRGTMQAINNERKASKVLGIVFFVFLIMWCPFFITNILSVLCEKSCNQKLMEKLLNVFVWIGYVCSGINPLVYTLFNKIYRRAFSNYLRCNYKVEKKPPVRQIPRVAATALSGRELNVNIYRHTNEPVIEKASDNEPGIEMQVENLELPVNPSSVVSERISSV

In assay [15] the target is Sodium-dependent dopamine transporter (Homo sapiens, UniProt Q01959).
Assay [16] deals with Glutamate receptor ionotropic, NMDA 1 (Rattus norvegicus, UniProt P35439).
Assay [17] has as its target Histamine H3 receptor (Homo sapiens, UniProt Q9Y5N1).
In assay [18] the target is Cannabinoid receptor 1 (Homo sapiens, UniProt P21554). Format: functional, cell-based.

Molecules are shown by their SMILES.
Note: assay procedure not described here.

Sequence of Sodium-dependent noradrenaline transporter (P23975 whole entry): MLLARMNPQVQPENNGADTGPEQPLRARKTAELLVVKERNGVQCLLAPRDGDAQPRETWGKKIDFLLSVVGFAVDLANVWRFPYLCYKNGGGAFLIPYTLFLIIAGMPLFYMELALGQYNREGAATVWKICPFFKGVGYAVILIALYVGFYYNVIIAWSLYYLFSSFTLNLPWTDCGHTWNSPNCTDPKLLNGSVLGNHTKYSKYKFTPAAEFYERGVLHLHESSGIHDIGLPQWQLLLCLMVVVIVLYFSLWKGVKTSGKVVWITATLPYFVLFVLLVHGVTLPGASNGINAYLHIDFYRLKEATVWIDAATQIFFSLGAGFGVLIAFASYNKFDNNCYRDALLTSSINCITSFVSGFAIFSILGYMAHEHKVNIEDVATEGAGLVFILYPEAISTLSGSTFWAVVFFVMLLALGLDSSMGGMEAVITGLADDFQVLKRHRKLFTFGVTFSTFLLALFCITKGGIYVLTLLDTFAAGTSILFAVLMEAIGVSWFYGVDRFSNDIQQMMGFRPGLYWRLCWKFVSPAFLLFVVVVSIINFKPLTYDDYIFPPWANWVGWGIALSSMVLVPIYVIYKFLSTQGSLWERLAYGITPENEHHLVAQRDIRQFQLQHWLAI
Sequence of Histamine H3 receptor (Q9Y5N1 whole entry): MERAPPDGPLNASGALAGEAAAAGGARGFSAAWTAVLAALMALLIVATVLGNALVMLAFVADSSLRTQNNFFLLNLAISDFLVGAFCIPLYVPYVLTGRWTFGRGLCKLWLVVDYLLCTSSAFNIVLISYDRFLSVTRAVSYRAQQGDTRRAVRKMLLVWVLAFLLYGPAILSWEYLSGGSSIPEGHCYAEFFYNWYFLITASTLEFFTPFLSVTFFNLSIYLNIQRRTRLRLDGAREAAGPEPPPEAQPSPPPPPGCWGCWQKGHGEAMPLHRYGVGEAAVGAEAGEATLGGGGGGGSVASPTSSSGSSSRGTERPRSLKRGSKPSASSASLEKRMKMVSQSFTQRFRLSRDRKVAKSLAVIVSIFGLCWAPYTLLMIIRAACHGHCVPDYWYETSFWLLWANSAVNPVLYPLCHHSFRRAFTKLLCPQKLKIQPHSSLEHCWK
Sequence of cGMP-inhibited 3',5'-cyclic phosphodiesterase 3A (Q14432 whole entry): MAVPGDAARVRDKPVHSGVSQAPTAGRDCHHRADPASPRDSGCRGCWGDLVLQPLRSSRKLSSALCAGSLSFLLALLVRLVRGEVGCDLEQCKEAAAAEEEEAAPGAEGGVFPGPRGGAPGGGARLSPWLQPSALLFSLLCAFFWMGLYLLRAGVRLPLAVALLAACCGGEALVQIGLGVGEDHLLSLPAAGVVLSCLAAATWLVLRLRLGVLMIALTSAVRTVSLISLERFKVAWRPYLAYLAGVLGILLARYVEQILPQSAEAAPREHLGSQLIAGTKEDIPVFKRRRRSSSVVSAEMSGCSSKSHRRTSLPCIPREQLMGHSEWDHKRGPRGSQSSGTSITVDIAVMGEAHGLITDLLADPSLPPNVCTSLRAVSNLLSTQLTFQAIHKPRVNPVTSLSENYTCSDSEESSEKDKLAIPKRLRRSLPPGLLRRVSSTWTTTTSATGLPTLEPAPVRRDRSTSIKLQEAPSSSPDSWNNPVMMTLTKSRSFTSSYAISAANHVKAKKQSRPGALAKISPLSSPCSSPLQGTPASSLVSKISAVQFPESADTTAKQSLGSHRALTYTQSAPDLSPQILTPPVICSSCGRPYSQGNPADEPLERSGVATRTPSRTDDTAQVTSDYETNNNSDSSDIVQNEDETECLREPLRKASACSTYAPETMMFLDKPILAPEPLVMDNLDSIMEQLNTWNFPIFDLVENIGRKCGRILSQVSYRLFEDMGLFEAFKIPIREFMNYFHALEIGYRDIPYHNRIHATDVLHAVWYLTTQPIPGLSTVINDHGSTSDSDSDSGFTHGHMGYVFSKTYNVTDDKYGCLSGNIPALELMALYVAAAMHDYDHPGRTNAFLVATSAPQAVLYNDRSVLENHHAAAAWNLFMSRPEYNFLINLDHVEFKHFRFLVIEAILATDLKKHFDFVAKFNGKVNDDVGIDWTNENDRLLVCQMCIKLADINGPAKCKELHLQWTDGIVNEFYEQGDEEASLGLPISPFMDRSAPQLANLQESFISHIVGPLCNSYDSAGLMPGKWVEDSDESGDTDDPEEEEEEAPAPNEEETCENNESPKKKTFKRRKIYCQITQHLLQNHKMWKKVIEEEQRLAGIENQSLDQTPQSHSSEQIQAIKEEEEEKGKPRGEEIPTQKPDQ
Sequence of Beta-2 adrenergic receptor (P07550 whole entry): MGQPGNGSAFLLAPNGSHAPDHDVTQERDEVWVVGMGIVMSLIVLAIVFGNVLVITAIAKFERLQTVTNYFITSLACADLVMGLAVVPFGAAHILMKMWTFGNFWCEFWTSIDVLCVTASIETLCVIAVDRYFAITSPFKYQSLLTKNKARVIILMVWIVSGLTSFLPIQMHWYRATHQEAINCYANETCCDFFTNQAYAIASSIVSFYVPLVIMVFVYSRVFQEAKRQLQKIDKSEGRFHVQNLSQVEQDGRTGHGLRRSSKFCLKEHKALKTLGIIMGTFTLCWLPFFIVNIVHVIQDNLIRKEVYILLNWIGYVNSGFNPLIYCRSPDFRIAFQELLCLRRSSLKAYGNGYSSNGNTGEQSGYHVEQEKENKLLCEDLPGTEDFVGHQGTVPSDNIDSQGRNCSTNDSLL
Sequence of 5-hydroxytryptamine receptor 2B (P41595 whole entry): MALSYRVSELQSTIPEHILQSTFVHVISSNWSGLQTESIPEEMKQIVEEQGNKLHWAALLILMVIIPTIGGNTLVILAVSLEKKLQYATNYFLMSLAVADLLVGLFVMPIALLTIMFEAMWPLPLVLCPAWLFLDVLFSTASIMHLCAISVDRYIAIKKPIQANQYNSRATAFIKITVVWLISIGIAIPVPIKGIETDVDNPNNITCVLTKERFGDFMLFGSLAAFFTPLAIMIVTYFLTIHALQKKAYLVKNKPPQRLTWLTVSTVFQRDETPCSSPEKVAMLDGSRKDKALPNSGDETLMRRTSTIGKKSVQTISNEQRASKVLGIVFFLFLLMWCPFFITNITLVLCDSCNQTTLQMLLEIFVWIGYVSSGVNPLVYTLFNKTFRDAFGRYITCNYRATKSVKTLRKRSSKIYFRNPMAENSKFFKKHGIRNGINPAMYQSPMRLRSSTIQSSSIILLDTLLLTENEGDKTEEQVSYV
T2 sequence (P62813 whole entry): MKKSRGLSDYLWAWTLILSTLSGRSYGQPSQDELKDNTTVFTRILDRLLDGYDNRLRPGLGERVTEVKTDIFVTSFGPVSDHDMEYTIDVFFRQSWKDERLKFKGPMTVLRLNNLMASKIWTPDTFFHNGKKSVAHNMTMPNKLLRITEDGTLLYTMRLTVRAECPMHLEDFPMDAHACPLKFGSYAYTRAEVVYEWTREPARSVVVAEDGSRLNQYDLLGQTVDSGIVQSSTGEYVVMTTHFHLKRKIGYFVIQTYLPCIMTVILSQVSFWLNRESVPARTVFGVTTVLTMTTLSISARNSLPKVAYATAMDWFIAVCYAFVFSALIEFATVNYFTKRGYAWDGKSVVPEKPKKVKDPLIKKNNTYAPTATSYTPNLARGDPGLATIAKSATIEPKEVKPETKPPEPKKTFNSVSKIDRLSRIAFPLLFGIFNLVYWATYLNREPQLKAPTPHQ
Sequence of Beta-1 adrenergic receptor (P08588 whole entry): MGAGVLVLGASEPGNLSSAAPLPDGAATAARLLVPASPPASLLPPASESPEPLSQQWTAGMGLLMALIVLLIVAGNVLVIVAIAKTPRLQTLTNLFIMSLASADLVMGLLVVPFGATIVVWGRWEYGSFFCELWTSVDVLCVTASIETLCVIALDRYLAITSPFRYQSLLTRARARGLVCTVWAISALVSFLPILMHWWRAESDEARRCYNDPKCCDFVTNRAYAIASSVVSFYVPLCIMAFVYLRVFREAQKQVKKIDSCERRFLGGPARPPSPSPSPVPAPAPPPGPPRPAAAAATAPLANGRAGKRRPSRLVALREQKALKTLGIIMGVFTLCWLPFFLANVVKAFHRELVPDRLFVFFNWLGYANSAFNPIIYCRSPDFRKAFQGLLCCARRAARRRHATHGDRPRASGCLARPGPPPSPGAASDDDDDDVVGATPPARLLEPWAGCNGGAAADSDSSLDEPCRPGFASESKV
Sequence of Growth hormone secretagogue receptor type 1 (Q92847 whole entry): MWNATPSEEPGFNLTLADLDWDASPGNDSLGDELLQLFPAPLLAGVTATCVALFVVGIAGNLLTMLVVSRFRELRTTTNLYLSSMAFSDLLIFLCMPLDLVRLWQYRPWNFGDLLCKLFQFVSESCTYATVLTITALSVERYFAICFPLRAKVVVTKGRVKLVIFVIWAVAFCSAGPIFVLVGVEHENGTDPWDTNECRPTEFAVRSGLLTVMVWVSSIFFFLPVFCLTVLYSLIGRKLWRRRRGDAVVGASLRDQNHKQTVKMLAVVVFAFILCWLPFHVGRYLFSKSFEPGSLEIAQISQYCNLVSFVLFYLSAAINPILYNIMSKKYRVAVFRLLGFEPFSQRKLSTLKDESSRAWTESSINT
Sequence of Motilin receptor (O43193 whole entry): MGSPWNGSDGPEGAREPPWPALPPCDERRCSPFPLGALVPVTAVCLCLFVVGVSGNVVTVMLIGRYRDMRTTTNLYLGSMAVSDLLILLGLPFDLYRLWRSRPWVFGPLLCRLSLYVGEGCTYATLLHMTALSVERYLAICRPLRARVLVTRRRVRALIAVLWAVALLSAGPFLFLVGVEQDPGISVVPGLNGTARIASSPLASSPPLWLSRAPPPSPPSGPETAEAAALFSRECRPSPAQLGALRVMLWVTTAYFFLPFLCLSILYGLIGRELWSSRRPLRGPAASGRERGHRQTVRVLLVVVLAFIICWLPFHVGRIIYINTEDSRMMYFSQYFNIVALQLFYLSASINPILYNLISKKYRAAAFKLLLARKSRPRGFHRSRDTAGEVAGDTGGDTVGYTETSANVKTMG

Regarding `COc1ccccc1OCC(O)COC(N)=O` (stereo unspecified) [METHOCARBAMOL], the half-maximal activity concentration (AC50) in assay [1], in [2], in assay [3], in [4], in assay [5] and in assay [6] was more than 10 µM throughout. Further, the AC50 (as a rule, the concentration giving half of the maximal activity seen) is more than 10 µM in assay [7]; more than 10 µM in assay [8]; more than 10 µM in assay [9]; more than 30 µM in assay [10]; more than 10 µM in assay [11]; more than 10 µM in [12]. Further, the AC50 in assay [13] was more than 10 µM; in [14], more than 30 µM; in [15], more than 10 µM; in assay [16] it was more than 10 µM.

Take `CC(=O)O[C@@]12CO[C@@H]1C[C@H](O)[C@@]1(C)C(=O)[C@H](O)C3=C(C)[C@@H](OC(=O)[C@H](O)[C@@H](NC(=O)OC(C)(C)C)c4ccccc4)C[C@@](O)([C@@H](OC(=O)c4ccccc4)[C@H]21)C3(C)C` [DOCETAXEL ANHYDROUS]: the concentration at half-maximal activity (AC50) in assay [17], in [1], in assay [2], in [3], in assay [4] and in [5] was more than 30 µM in each case. Further, the half-maximal activity concentration (AC50) in assay [6], in assay [7], in [8], in assay [9], in assay [10] and in [11] was more than 30 µM in each case. Further, the concentration at half-maximal activity (AC50) in [12], in [13], in [14], in assay [15] and in assay [16] was more than 30 µM throughout.

`CC[C@]1(O)C[C@@H]2CN(CCc3c([nH]c4ccccc34)[C@@](C(=O)OC)(c3cc4c(cc3OC)N(C)[C@H]3[C@@](O)(C(N)=O)[C@H](O)[C@]5(CC)C=CCN6CC[C@]43[C@@H]65)C2)C1` [VINDESINE]: the concentration at half-maximal activity (AC50) in assay [17] was more than 30 µM; in assay [1], more than 30 µM; in assay [2], more than 30 µM; in assay [3] it was more than 30 µM; in assay [4], 4.8 µM; in assay [5], more than 30 µM. Further, the AC50 in assay [6] was 6.5 µM; in assay [7] it was more than 30 µM; in assay [8], more than 30 µM; in assay [9], more than 30 µM; in assay [10], more than 30 µM; in assay [11], more than 30 µM. For the same compound, the AC50 in assay [12], in assay [13], in [14], in [15] and in [16] was more than 30 µM each time.

`CCCOc1ccc(C(=O)OCCN(CC)CC)cc1N` [PROPARACAINE]: the AC50 in assay [17] was 1.3 µM; in [1] it was more than 30 µM; in assay [2], more than 30 µM; in assay [3], more than 30 µM; in assay [4], more than 30 µM; in assay [18], more than 30 µM. The AC50 in assay [5], in assay [6], in assay [7], in assay [9], in assay [10] and in [11] was more than 30 µM in each case. Besides, the AC50 in assay [12], in [14], in [15] and in assay [16] was more than 30 µM throughout.

Regarding `Nc1nc2ccc(OC(F)(F)F)cc2s1` [RILUZOLE], the AC50 in [17], in assay [1], in assay [2], in assay [3], in assay [4] and in assay [18] was more than 30 µM each time. Moreover, the AC50 in [5] was more than 30 µM; in assay [6], more than 30 µM; in assay [7], 19 µM; in assay [9], more than 30 µM; in assay [10], more than 30 µM; in [11] it was more than 30 µM. Besides, the AC50 in assay [12], in assay [14], in assay [15] and in assay [16] was more than 30 µM throughout.

Turning to `CN[C@@H]1[C@H](O)[C@H](NC)[C@H]2O[C@@]3(O)C(=O)C[C@@H](C)O[C@H]3O[C@@H]2[C@H]1O` [SPECTINOMYCIN], the half-maximal activity concentration (AC50) in assay [17], in [1], in [2], in assay [3], in assay [4] and in [5] was more than 10 µM in each case. Moreover, the concentration at half-maximal activity (AC50) was more than 10 µM in [6]; more than 10 µM in assay [7]; more than 10 µM in assay [8]; more than 10 µM in assay [9]; more than 30 µM in assay [10]; more than 10 µM in [11]. Also, the concentration at half-maximal activity (AC50) in assay [12] was more than 30 µM; in assay [13], more than 10 µM; in [14] it was more than 30 µM; in assay [15] it was more than 10 µM; in assay [16], more than 10 µM.

With `COc1c(N2CCNC(C)C2)c(F)cc2c(=O)c(C(=O)O)cn(C3CC3)c12` (stereo unspecified) [GATIFLOXACIN], the half-maximal activity concentration (AC50) in assay [1] was more than 10 µM; in [2], more than 10 µM; in assay [3], more than 30 µM; in assay [4], more than 10 µM; in assay [5], more than 10 µM; in assay [6], more than 10 µM. The AC50 was more than 10 µM in assay [7]; more than 10 µM in assay [8]; more than 10 µM in assay [9]; more than 30 µM in [10]; more than 10 µM in assay [11]; more than 10 µM in [12]. In addition, the half-maximal activity concentration (AC50) in [13] was more than 10 µM; in assay [14], more than 30 µM; in assay [15] it was more than 10 µM; in [16], more than 10 µM.

For `Cc1cccc(C)c1NC(=O)C1CCCCN1C` (stereo unspecified) [MEPIVACAINE], the AC50 in [17], in assay [1], in [2], in [3], in assay [4] and in assay [18] was more than 30 µM throughout. Besides, the AC50 in assay [5], in assay [6], in [7], in assay [9], in [10] and in assay [11] was more than 30 µM throughout. Further, the concentration at half-maximal activity (AC50) in assay [12], in assay [14], in assay [15] and in assay [16] was more than 30 µM in each case.

For `CCNC(C)Cc1cccc(C(F)(F)F)c1` (stereo unspecified) [FENFLURAMINE], the AC50 in assay [17] is more than 10 µM; in assay [1] it was more than 30 µM; in assay [2], more than 10 µM; in assay [4], more than 10 µM; in assay [18], more than 30 µM; in [6], more than 30 µM. Besides, the AC50 is more than 30 µM in assay [9], more than 30 µM in assay [10], more than 10 µM in assay [13] and more than 10 µM in assay [16].
